The text below walks through data of PMC9293227 (Clinical Pharmacology in Drug Development, 2021).

The conditions of series [1]: for AUCinf (molar ratio of 2‐hydroxy‐atorvastatin to atorvastatin) / Cmax (molar ratio of 2‐hydroxy‐atorvastatin to atorvastatin): mean (%CV); for increase in Cmax with filgotinib coadministration relative to statin alone: pravastatin 40 mg / rosuvastatin 10 mg, filgotinib 200 mg once daily.
Series [2] can be described thus: Safety assessment. As to conditions: by treatment arm. It is filed as in vivo, human (healthy adult participants).
For series [3] the following is noted: no reference given, cited from earlier work.
Series [4] has as its system cytochrome P450 enzymes or uridine 5’‐diphospho‐glucuronosyltransferases. The note with it: in vitro; cited from earlier work.
For series [5] the following is noted: cited from earlier work.
Series [6] concerns JAK1. As to conditions: human whole blood assay; cited from earlier work.
The conditions of series [7]: clinical trials and postmarketing surveillance; cited from earlier work.
[8] abbreviates: 2-hydroxy-atorvastatin after atorvastatin 40 mg alone, n = 25, median (Q1-Q3).
[9] abbreviates: 2-hydroxy-atorvastatin, atorvastatin + filgotinib vs atorvastatin alone.
The mark [10] stands for this setting: atorvastatin 40 mg + filgotinib 200 mg once daily, n = 26.
Setting [11] is: atorvastatin 40 mg alone, n = 25.
The mark [12] stands for this setting: atorvastatin + filgotinib vs atorvastatin alone.
[13] abbreviates: both, human, plasma, oral, 40 mg.
The mark [14] stands for this setting: both, human, plasma, oral, 10 mg.
[15] abbreviates: rosuvastatin + filgotinib vs rosuvastatin alone.

Molecules are shown by their SMILES. Like-named read-outs stand apart in the source and are kept apart here. Bounds are passed on as bounds.

Take `CC(C)c1c(C(=O)Nc2ccccc2O)c(-c2ccccc2)c(-c2ccc(F)cc2)n1CCC(O)CC(O)CC(=O)O` (stereo not shown) [2‐Hydroxy‐Atorvastatin, 2‐hydroxy‐atorvastatin]: in series [1] (setting [8]), the t1/2 is given as 9.1 (7.1‐10.9) h and the tmax is listed as 2.0 (1.5‐4.1) h. For the same compound, in series [1] (setting [9]), the “AUCinf GLSM Ratio (90% CI)” value is reported as 1.11 (1.02‐1.22), the “AUClast GLSM Ratio (90% CI)” value was 1.12 (1.02‐1.23) and the “Cmax GLSM Ratio (90% CI)” value is 0.98 (0.81‐1.19). In addition, in series [1] (setting [10]), the “AUCinf (molar ratio of 2‐hydroxy‐atorvastatin to atorvastatin)” value is on record as 1.6 (26.3) and the “Cmax (molar ratio of 2‐hydroxy‐atorvastatin to atorvastatin)” value is on record as 0.8 (29.3). Besides, in series [1] (setting [11]), the “AUCinf (molar ratio of 2‐hydroxy‐atorvastatin to atorvastatin)” value is reported as 1.3 (35.1) and the “Cmax (molar ratio of 2‐hydroxy‐atorvastatin to atorvastatin)” value is reported as 0.7 (43.9). Further, in series [1] (setting [12]), the “AUCinf (molar ratio of 2‐hydroxy‐atorvastatin to atorvastatin) GLSM Ratio (90% CI)” value is 1.22 (1.15‐1.29) and the “Cmax (molar ratio of 2‐hydroxy‐atorvastatin to atorvastatin) GLSM Ratio (90% CI)” value is recorded as 1.19 (1.06‐1.33).

With `CC(C)c1c(C(=O)Nc2ccccc2)c(-c2ccccc2)c(-c2ccc(F)cc2)n1CC[C@@H](O)C[C@@H](O)CC(=O)O` [Atorvastatin], in series [2], the “participants with treatment‐emergent AE related to study drug, n (%)” value is 3 (11.5%). Further, the “headache, n [%]” value in series [2] (all mild or moderate) was 2 [7.7%].

With `O=C(Nc1nc2cccc(-c3ccc(CN4CCS(=O)(=O)CC4)cc3)n2n1)C1CC1` [Filgotinib], in series [3], the “accumulation in plasma following multiple once-daily dosing of filgotinib” value was “does not accumulate”. Moreover, in series [4], the “interaction with cytochrome P450 enzymes or UGTs” value was “do not interact”. In series [2], the “participants with treatment‐emergent AE related to study drug, n (%)” value is on record as 8 (30.8%). For the same compound, in series [2] (all mild or moderate), the “headache, n [%]” value is 5 [19.2%] and the “nausea, n [%]” value was 3 [11.5%]. Further, the “effect on QT interval” value in series [5] is listed as “not affect QT interval”.

As to `Nc1nc2cccc(-c3ccc(CN4CCS(=O)(=O)CC4)cc3)n2n1` [GS‐829845], in series [6], the “reduced potency relative to filgotinib” value is given as “≈ 10 fold”. Moreover, the “time to achieve steady-state plasma concentrations” value in series [3] (multiple once-daily dosing of filgotinib) is “≈ 4 days”. The “accumulation in plasma following multiple once-daily dosing of filgotinib” value in series [3] is given as “approximately 2 fold”. The “interaction with cytochrome P450 enzymes or UGTs” value in series [4] is reported as “do not interact”. Further, the “effect on QT interval” value in series [5] is “not affect QT interval”.

In series [1] (setting [13]), `CC[C@H](C)C(=O)O[C@H]1C[C@H](O)C=C2C=C[C@H](C)[C@H](CC[C@@H](O)C[C@@H](O)CC(=O)O)[C@H]21` [Pravastatin] registered an AUC(0-inf) of 201 ng·h/mL, an AUC(0-t) of 200 ng·h/mL and a tmax of 1 h. For the same compound, in series [1] (both, human, plasma, oral, t1/2, pravastatin 40 mg (cocktail) + filgotinib 200 mg once daily, n = 26, mean (standard deviation)), the half-life is 394 min. In addition, the half-life in series [1] (both, human, plasma, oral, t1/2, pravastatin 40 mg (cocktail) + filgotinib 200 mg once daily, n = 26, median (Q1-Q3)) is 336 min. The “increase in Cmax with filgotinib coadministration relative to statin alone” value in series [1] came out at 25%. Further, the “AUClast GLSM Ratio (90% CI)” value in series [1] (pravastatin + filgotinib vs pravastatin alone) is 1.22 (1.05‐1.41).

Take `CC(C)c1nc(N(C)S(C)(=O)=O)nc(-c2ccc(F)cc2)c1/C=C/[C@@H](O)C[C@@H](O)CC(=O)O` [Rosuvastatin]: in series [1] (setting [14]), the AUC(0-inf) stood at 66 ng·h/mL and the concentration peaked (Cmax) at 7.5 ng/mL. Also, in series [1] (both, human, plasma, oral, t1/2, rosuvastatin 10 mg (cocktail) + filgotinib 200 mg once daily, n = 26, median (Q1-Q3)), the half-life was 924 min. The “increase in Cmax with filgotinib coadministration relative to statin alone” value in series [1] was determined as 68%. Further, the tmax in series [1] (rosuvastatin 10 mg alone (cocktail), n = 25, median (Q1-Q3)) is recorded as 3.0 (2.0‐4.0) h. Further, in series [1] (setting [15]), the “AUCinf GLSM Ratio (90% CI)” value is listed as 1.42 (1.30‐1.57), the “AUClast GLSM Ratio (90% CI)” value is listed as 1.46 (1.32‐1.62) and the “Cmax GLSM Ratio (90% CI)” value is on record as 1.68 (1.43‐1.97). Besides, the “myopathy related to rosuvastatin, patients” value in series [7] was at most 0.03%.
